# Assays:
# Type in all cases: biochemical
# JNK3 = JNK3 (Homo sapiens, UniProt P53779); assay: IC50 assay for JNK kinase inhibition, JNK3
# JNK2 = JNK2 (Homo sapiens, UniProt P45984); assay: IC50 assay for JNK kinase inhibition, JNK2
# JNK1 = JNK1 (Homo sapiens, UniProt P45983); assay: IC50 assay for JNK kinase inhibition, JNK1
# Sequence of JNK1 (P45983 whole entry): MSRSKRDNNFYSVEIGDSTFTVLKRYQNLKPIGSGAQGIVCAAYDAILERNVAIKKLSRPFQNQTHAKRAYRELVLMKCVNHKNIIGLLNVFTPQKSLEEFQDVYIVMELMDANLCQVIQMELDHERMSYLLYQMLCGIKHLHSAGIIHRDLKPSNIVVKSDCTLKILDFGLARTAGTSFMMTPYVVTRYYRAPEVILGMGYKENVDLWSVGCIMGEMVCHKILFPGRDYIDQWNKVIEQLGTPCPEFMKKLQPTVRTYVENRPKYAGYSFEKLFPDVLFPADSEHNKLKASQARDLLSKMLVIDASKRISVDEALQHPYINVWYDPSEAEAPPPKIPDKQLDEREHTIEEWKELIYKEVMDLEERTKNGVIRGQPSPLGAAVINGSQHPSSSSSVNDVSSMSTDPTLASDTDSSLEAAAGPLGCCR
# Sequence of JNK3 (P53779 whole entry): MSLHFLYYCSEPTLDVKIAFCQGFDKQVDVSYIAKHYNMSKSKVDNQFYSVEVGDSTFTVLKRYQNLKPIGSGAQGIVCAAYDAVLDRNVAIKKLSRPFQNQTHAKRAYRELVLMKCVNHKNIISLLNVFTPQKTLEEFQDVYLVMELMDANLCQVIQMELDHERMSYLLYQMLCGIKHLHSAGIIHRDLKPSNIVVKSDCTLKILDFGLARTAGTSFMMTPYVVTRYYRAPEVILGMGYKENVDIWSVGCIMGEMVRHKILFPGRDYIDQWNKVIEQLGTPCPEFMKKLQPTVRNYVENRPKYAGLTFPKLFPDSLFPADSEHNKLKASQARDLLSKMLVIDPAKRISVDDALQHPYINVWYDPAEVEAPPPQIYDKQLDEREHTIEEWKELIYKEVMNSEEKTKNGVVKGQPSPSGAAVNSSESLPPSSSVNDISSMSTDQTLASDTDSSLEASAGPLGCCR
# Sequence of JNK2 (P45984 whole entry): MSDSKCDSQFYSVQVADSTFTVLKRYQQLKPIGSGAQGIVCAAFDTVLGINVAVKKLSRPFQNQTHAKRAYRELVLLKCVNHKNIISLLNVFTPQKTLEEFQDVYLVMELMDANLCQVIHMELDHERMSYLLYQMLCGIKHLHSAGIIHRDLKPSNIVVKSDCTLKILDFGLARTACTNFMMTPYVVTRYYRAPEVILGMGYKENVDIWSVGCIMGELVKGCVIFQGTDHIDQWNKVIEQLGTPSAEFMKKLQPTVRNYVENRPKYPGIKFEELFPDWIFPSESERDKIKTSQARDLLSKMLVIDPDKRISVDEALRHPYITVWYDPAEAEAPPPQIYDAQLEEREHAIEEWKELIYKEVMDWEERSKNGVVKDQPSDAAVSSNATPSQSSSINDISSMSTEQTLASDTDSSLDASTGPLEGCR
SMILES,IC50 (JNK3),IC50 (JNK2),IC50 (JNK1)
"CN(C)C/C=C/C(=O)Nc1ccc2c(N3CC[C@H](Nc4nccc(-c5c(-c6ccccc6)nn6ccccc56)n4)C3)nccc2c1 [I-20, (S,E)-4-(dimethylamino)-N-(1-(3-((4-(2-phenylpyrazolo[1,5-a]pyridin-3-yl)pyrimidin-2-yl)amino)pyrrolidin-1-yl)isoquinolin-6-yl)but-2-enamide]",12 nM,10 nM,168 nM
"CN(C)CCCC(=O)Nc1ccc(C(=O)N2CC[C@@H](Nc3nccc(-c4c(-c5ccccc5)nn5ccccc45)n3)C2)cc1 [I-8, (R)-4-(dimethylamino)-N-(4-(3-((4-(2-phenylpyrazolo[1,5-a]pyridin-3-yl)pyrimidin-2-yl)amino)pyrrolidine-1-carbonyl)phenyl)butanamide]",21.4 nM,5.59 nM,73.4 nM
"CN(C)C/C=C/C(=O)Nc1ccc(C(=O)N2CC[C@H](Nc3nccc(-c4c(-c5ccc(F)cc5)nn5ccccc45)n3)C2)cc1 [I-22, (S,E)-4-(dimethylamino)-N-(4-(3-((4-(2-(4-fluorophenyl)pyrazolo[1,5-a]pyridin-3-yl)pyrimidin-2-yl)amino)pyrrolidine-1-carbonyl)phenyl)but-2-enamide]",3.87 nM,5.57 nM,85 nM
"CN(C)CCCC(=O)Nc1ccc(C(=O)N2CC[C@H](Nc3nccc(-c4c(-c5ccccc5)nn5ccccc45)n3)C2)cc1 [I-12, (S)-4-(dimethylamino)-N-(4-(3-((4-(2-phenylpyrazolo[1,5-a]pyridin-3-yl)pyrimidin-2-yl)amino)pyrrolidine-1-carbonyl)phenyl)butanamide]",110 nM,17.6 nM,320 nM
"Cc1ccc2c(-c3ccnc(N[C@H]4CCN(C(=O)c5ccc(NC(=O)/C=C/CN(C)C)cc5)C4)n3)c(-c3ccccc3)nn2c1 [I-24, (S,E)-4-(dimethylamino)-N-(4-(3-((4-(6-methyl-2-phenylpyrazolo[1,5-a]pyridin-3-yl)pyrimidin-2-yl)amino)pyrrolidine-1-carbonyl)phenyl)but-2-enamide]",5.53 nM,0.952 nM,18.4 nM
"CN(C)CCCC(=O)Nc1ccc(C(=O)N2CCC[C@@H](Nc3nccc(-c4c(-c5ccccc5)nn5ccccc45)n3)C2)cc1 [I-6, (R)-4-(dimethylamino)-N-(4-(3-((4-(2-phenylpyrazolo[1,5-a]pyridin-3-yl)pyrimidin-2-yl)amino)piperidine-1-carbonyl)phenyl)butanamide]",1090 nM,40 nM,278 nM
"CN(C)C/C=C/C(=O)Nc1ccc(C(=O)N2CC[C@H](Nc3ncc(Cl)c(-c4c(-c5ccccc5)nn5ccccc45)n3)C2)cc1 [I-21, (S,E)-N-(4-(3-((5-chloro-4-(2-phenylpyrazolo[1,5-a]pyridin-3-yl)pyrimidin-2-yl)amino)pyrrolidine-1-carbonyl)phenyl)-4-(dimethylamino)but-2-enamide]",359 nM,585 nM,3360 nM
"CN(C)CCCC(=O)Nc1ccc(C(=O)N2CCCC[C@@H](Nc3nccc(-c4c(-c5ccccc5)nn5ccccc45)n3)C2)cc1 [I-10, (R)-4-(dimethylamino)-N-(4-(3-((4-(2-phenylpyrazolo[1,5-a]pyridin-3-yl)pyrimidin-2-yl)amino)azepane-1-carbonyl)phenyl)butanamide]",48.1 nM,7.88 nM,243 nM
"Cc1cccn2nc(-c3ccccc3)c(-c3ccnc(N[C@H]4CCN(C(=O)c5ccc(NC(=O)/C=C/CN(C)C)cc5)C4)n3)c12 [I-23, (S,E)-4-(dimethylamino)-N-(4-(3-((4-(4-methyl-2-phenylpyrazolo[1,5-a]pyridin-3-yl)pyrimidin-2-yl)amino)pyrrolidine-1-carbonyl)phenyl)but-2-enamide]",396 nM,142 nM,1140 nM
"CN(C)C/C=C/C(=O)Nc1ccc(C(=O)N2CC[C@H](Nc3nccc(-c4c(-c5ccc(Cl)cc5)nn5ccccc45)n3)C2)cc1 [I-26, (S,E)-N-(4-(3-((4-(2-(4-chlorophenyl)pyrazolo[1,5-a]pyridin-3-yl)pyrimidin-2-yl)amino)pyrrolidine-1-carbonyl)phenyl)-4-(dimethylamino)but-2-enamide]",10.3 nM,67.6 nM,8.9 nM

# Next, values leading:
IC50 (JNK3),IC50 (JNK2),IC50 (JNK1),SMILES
10.9 nM,6.94 nM,37.6 nM,"CN(C)C/C=C/C(=O)Nc1cccc(C(=O)N2CC[C@H](Nc3nccc(-c4c(-c5ccccc5)nn5ccccc45)n3)C2)c1 [I-16, (S,E)-4-(dimethylamino)-N-(3-(3-((4-(2-phenylpyrazolo[1,5-a]pyridin-3-yl)pyrimidin-2-yl)amino)pyrrolidine-1-carbonyl)phenyl)but-2-enamide]"
96.1 nM,15.9 nM,403 nM,"CN(C)C/C=C/C(=O)Nc1ccc(C(=O)N2CCCC[C@@H](Nc3nccc(-c4c(-c5ccccc5)nn5ccccc45)n3)C2)cc1 [I-9, (R,E)-4-(dimethylamino)-N-(4-(3-((4-(2-phenylpyrazolo[1,5-a]pyridin-3-yl)pyrimidin-2-yl)amino)azepane-1-carbonyl)phenyl)but-2-enamide]"
> 10000 nM,7890 nM,> 10000 nM,"CN(C)C/C=C/C(=O)Nc1ccc(C(=O)N2CC3CC(Nc4nccc(-c5c(-c6ccccc6)nn6ccccc56)n4)C2C3)cc1 (stereo not drawn) [I-17, (E)-4-(dimethylamino)-N-(4-(6-((4-(2-phenylpyrazolo[1,5-a]pyridin-3-yl)pyrimidin-2-yl)amino)-2-azabicyclo[2.2.1]heptane-2-carbonyl)phenyl)but-2-enamide]"
15 nM,24 nM,569 nM,"CN(C)C/C=C/C(=O)Nc1ccc(C(=O)N2CCC[C@@H](Nc3nccc(-c4c(-c5ccccc5)nn5ccccc45)n3)C2)cc1 [I-5, (R,E)-4-(dimethylamino)-N-(4-(3-((4-(2-phenylpyrazolo[1,5-a]pyridin-3-yl)pyrimidin-2-yl)amino)piperidine-1-carbonyl)phenyl)but-2-enamide]"
15.7 nM,12.4 nM,99.3 nM,"CN(C)C/C=C/C(=O)Nc1ccc(NC(=O)N2CC[C@H](Nc3nccc(-c4c(-c5ccccc5)nn5ccccc45)n3)C2)cc1 [I-18, (S,E)-N-(4-(4-(dimethylamino)but-2-enamido)phenyl)-3-((4-(2-phenylpyrazolo[1,5-a]pyridin-3-yl)pyrimidin-2-yl)amino)pyrrolidine-1-carboxamide]"
18.3 nM,3.92 nM,90.7 nM,"CN(C)C/C=C/C(=O)Nc1ccc(C(=O)N2CC[C@H](Nc3nccc(-c4c(-c5cccc(Cl)c5)nn5ccccc45)n3)C2)cc1 [I-25, (S,E)-N-(4-(3-((4-(2-(3-chlorophenyl)pyrazolo[1,5-a]pyridin-3-yl)pyrimidin-2-yl)amino)pyrrolidine-1-carbonyl)phenyl)-4-(dimethylamino)but-2-enamide]"
51.4 nM,4.91 nM,152 nM,"CN(C)C/C=C/C(=O)Nc1ccc(C(=O)N2CC[C@H](Nc3nccc(-c4c(-c5ccccc5)nn5ccccc45)n3)C2)cc1 [I-11, (S,E)-4-(dimethylamino)-N-(4-(3-((4-(2-phenylpyrazolo[1,5-a]pyridin-3-yl)pyrimidin-2-yl)amino)pyrrolidine-1-carbonyl)phenyl)but-2-enamide]"

# — patent US12637453B2, “Pyrazolopyridine inhibitors of c-Jun-n-Terminal kinases and uses thereof” (Dana-Farber Cancer Institute, Inc., priority 2019, dated 2026)
